Assay results published in ChEMBL document CHEMBL4507319 (2021).

Assays:
[1] = test system: Tyrosine-protein kinase ABL1 (Homo sapiens), P00519 [H396P]; settings: Compound concentration 1000.0 nM
[2] = molecular target: Cyclin-dependent kinase 13 (Homo sapiens) (UniProt Q14004); settings: Compound concentration 1000.0 nM
[3] = molecular target: Tyrosine-protein kinase CSK (Homo sapiens) (UniProt P41240); settings: Compound concentration 1000.0 nM
[4] = molecular target: Death-associated protein kinase 1 (Homo sapiens) (UniProt P53355); settings: Compound concentration 1000.0 nM
[5] = test system: Epidermal growth factor receptor (Homo sapiens), P00533 [UNDEFINED MUTATION]; settings: Compound concentration 1000.0 nM
[6] = molecular target: Ephrin type-A receptor 4 (Homo sapiens) (UniProt P54764); settings: Compound concentration 1000.0 nM
[7] = molecular target: Mitogen-activated protein kinase 6 (Homo sapiens) (UniProt Q16659); settings: Compound concentration 1000.0 nM
[8] = molecular target: Tyrosine-protein kinase Fes/Fps (Homo sapiens) (UniProt P07332); settings: Compound concentration 1000.0 nM
[9] = molecular target: Glycogen synthase kinase-3 alpha (Homo sapiens) (UniProt P49840); settings: Compound concentration 1000.0 nM
[10] = molecular target: T1, Serine/threonine-protein kinase haspin (Homo sapiens) (UniProt Q8TF76); settings: Compound concentration 1000.0 nM
T1 sequence (whole entry): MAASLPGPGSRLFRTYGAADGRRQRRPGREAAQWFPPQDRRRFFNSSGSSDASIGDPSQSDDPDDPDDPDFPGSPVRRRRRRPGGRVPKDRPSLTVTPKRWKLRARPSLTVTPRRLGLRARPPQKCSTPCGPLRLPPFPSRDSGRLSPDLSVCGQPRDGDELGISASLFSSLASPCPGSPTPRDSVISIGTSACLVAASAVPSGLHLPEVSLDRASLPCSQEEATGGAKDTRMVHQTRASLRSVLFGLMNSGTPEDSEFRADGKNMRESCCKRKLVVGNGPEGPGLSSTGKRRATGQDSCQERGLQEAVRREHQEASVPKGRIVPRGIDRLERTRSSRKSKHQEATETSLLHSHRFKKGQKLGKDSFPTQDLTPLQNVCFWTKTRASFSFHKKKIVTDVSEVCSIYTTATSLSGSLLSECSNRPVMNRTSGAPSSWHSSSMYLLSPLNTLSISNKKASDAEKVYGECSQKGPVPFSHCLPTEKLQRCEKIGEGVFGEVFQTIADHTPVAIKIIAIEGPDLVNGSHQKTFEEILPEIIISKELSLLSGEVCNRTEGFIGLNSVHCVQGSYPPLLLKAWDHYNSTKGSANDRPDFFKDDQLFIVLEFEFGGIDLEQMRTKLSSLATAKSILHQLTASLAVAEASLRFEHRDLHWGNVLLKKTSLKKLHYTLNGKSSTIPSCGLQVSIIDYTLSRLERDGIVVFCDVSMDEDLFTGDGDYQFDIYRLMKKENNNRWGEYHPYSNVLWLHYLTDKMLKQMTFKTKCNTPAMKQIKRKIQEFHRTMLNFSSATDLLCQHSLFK

[11] = molecular target: Maternal embryonic leucine zipper kinase (Homo sapiens) (UniProt Q14680); settings: Compound concentration 1000.0 nM
[12] = molecular target: Myosin light chain kinase 2, skeletal/cardiac muscle (Homo sapiens) (UniProt Q9H1R3); settings: Compound concentration 1000.0 nM
[13] = molecular target: T2, Mitogen-activated protein kinase 13 (Homo sapiens) (UniProt O15264); settings: Compound concentration 1000.0 nM
T2 sequence (whole entry): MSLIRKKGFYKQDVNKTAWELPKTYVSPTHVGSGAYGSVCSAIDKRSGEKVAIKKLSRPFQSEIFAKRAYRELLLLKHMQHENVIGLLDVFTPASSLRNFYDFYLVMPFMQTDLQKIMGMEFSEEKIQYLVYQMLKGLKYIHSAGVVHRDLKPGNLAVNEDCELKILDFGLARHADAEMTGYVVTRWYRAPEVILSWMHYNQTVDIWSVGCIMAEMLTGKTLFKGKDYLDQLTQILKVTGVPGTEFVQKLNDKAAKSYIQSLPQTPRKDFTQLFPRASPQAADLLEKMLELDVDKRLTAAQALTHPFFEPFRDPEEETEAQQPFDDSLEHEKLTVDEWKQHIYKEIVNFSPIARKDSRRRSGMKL

[14] = molecular target: Proto-oncogene tyrosine-protein kinase receptor Ret (Homo sapiens) (UniProt P07949); settings: Compound concentration 1000.0 nM
[15] = molecular target: Receptor-interacting serine/threonine-protein kinase 4 (Homo sapiens) (UniProt P57078); settings: Compound concentration 1000.0 nM
[16] = molecular target: T3, Serine/threonine-protein kinase Sgk3 (Homo sapiens) (UniProt Q96BR1); settings: Compound concentration 1000.0 nM
T3 sequence (whole entry): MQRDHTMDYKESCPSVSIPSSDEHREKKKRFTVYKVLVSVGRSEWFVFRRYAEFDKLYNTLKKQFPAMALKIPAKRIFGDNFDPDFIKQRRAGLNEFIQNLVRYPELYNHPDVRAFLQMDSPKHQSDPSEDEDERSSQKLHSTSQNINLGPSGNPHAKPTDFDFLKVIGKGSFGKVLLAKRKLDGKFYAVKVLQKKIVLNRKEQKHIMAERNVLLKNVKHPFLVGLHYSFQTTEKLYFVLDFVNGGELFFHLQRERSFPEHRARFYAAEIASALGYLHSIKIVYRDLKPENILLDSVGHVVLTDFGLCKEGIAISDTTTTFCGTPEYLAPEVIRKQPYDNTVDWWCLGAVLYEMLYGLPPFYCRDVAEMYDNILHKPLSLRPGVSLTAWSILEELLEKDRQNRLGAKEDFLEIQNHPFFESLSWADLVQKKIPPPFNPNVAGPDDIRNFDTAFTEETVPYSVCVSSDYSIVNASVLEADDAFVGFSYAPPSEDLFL

[17] = molecular target: Serine/threonine-protein kinase SIK1 (Homo sapiens) (UniProt P57059); settings: Compound concentration 1000.0 nM
[18] = molecular target: 5-hydroxytryptamine receptor 1B (Homo sapiens) (UniProt P28222); settings: Compound concentration 10.0 uM
[19] = molecular target: Histamine H1 receptor (Homo sapiens) (UniProt P35367); settings: Compound concentration 10.0 uM
[20] = molecular target: Alpha-1A adrenergic receptor (Homo sapiens) (UniProt P35348); settings: Compound concentration 10.0 uM
[21] = molecular target: Sigma intracellular receptor 2 (Homo sapiens, UniProt Q5BJF2); settings: Compound concentration 10.0 uM
Sequence of Sigma intracellular receptor 2 (Q5BJF2 whole entry): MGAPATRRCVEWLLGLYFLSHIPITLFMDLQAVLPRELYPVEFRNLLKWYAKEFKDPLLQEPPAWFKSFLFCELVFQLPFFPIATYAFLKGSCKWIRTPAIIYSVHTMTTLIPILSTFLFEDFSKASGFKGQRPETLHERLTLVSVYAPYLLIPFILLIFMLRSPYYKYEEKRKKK

Sequence of Proto-oncogene tyrosine-protein kinase receptor Ret (Homo sapiens) (P07949 whole entry): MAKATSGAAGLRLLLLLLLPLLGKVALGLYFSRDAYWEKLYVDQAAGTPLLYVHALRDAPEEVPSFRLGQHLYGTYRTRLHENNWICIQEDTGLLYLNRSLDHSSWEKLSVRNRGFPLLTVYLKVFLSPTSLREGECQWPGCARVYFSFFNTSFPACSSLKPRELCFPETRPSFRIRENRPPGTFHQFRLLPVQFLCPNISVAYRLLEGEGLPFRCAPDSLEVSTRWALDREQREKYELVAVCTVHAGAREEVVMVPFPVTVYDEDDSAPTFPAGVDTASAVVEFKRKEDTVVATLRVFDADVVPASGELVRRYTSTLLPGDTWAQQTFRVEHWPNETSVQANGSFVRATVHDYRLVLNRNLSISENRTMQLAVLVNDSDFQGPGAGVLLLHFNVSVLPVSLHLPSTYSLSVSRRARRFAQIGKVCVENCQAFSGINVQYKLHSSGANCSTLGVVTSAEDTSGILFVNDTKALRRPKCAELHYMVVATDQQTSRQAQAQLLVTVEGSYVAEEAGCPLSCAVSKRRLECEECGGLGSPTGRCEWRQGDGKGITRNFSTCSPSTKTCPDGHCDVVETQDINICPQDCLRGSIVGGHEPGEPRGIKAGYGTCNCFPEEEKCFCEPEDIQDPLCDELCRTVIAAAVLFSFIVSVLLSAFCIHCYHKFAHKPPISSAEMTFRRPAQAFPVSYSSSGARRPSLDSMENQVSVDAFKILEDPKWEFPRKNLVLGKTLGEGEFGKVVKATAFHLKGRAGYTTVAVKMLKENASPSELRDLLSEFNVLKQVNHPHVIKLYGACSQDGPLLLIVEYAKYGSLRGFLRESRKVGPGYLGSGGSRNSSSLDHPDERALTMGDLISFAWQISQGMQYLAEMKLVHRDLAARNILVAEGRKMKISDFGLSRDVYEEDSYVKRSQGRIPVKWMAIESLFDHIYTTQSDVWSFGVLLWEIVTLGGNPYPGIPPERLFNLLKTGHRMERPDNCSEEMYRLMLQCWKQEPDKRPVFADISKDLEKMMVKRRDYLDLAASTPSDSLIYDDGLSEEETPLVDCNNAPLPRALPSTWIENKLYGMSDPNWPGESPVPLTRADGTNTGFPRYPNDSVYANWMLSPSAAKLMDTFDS
Sequence of Serine/threonine-protein kinase SIK1 (Homo sapiens) (P57059 whole entry): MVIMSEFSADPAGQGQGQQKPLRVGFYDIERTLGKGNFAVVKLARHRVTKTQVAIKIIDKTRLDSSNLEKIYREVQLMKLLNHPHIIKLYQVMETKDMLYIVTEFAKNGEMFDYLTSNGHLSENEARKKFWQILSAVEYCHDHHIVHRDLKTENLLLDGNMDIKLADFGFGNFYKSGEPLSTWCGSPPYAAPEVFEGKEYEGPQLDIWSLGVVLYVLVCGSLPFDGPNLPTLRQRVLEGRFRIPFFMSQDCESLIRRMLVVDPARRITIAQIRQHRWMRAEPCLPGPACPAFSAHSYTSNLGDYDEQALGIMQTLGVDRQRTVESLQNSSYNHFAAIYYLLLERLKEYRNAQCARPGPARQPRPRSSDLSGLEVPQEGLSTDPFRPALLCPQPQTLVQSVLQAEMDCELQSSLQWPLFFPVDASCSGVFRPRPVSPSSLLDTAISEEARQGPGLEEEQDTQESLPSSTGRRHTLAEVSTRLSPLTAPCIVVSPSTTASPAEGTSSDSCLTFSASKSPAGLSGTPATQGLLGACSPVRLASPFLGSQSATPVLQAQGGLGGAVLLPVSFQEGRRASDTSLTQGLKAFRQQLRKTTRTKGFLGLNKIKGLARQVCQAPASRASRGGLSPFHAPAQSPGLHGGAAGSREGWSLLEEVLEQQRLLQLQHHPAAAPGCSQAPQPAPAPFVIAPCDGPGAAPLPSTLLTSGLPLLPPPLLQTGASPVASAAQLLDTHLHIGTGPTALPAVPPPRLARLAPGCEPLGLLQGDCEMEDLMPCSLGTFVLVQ
Sequence of Epidermal growth factor receptor (Homo sapiens), P00533 [UNDEFINED MUTATION] (P00533 whole entry, looked up, change not shown): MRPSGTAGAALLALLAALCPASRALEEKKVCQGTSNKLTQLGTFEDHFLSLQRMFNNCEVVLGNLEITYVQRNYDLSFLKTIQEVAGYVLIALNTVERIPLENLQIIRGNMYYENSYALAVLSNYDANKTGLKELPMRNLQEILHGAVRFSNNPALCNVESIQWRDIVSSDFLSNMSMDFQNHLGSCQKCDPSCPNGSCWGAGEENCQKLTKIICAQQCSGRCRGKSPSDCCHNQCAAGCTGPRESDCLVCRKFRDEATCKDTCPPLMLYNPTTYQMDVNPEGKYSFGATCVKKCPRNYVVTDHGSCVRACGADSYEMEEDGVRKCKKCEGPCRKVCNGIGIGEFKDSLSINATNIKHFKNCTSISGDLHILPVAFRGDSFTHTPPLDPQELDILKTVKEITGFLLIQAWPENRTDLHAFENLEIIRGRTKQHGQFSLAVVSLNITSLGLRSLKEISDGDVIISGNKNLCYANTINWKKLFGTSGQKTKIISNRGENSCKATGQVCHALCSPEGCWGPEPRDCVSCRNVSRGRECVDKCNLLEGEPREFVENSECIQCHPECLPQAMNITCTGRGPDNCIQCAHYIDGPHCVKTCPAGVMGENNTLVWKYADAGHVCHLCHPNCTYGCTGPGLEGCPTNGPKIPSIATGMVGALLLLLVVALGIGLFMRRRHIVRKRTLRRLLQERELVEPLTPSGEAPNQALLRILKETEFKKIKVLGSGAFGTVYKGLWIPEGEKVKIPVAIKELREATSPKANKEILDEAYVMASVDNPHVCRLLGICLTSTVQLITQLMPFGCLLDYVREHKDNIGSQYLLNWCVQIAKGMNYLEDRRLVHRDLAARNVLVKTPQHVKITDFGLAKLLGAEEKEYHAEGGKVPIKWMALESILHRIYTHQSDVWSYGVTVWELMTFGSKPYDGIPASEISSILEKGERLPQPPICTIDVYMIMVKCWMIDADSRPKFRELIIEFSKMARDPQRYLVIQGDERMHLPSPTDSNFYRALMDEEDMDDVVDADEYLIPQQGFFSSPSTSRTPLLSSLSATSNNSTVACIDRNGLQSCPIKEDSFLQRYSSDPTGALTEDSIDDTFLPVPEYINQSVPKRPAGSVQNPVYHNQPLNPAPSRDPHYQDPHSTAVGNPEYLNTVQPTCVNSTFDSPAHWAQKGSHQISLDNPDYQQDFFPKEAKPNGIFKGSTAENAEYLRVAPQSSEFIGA
Sequence of Cyclin-dependent kinase 13 (Homo sapiens) (Q14004 whole entry, looked up): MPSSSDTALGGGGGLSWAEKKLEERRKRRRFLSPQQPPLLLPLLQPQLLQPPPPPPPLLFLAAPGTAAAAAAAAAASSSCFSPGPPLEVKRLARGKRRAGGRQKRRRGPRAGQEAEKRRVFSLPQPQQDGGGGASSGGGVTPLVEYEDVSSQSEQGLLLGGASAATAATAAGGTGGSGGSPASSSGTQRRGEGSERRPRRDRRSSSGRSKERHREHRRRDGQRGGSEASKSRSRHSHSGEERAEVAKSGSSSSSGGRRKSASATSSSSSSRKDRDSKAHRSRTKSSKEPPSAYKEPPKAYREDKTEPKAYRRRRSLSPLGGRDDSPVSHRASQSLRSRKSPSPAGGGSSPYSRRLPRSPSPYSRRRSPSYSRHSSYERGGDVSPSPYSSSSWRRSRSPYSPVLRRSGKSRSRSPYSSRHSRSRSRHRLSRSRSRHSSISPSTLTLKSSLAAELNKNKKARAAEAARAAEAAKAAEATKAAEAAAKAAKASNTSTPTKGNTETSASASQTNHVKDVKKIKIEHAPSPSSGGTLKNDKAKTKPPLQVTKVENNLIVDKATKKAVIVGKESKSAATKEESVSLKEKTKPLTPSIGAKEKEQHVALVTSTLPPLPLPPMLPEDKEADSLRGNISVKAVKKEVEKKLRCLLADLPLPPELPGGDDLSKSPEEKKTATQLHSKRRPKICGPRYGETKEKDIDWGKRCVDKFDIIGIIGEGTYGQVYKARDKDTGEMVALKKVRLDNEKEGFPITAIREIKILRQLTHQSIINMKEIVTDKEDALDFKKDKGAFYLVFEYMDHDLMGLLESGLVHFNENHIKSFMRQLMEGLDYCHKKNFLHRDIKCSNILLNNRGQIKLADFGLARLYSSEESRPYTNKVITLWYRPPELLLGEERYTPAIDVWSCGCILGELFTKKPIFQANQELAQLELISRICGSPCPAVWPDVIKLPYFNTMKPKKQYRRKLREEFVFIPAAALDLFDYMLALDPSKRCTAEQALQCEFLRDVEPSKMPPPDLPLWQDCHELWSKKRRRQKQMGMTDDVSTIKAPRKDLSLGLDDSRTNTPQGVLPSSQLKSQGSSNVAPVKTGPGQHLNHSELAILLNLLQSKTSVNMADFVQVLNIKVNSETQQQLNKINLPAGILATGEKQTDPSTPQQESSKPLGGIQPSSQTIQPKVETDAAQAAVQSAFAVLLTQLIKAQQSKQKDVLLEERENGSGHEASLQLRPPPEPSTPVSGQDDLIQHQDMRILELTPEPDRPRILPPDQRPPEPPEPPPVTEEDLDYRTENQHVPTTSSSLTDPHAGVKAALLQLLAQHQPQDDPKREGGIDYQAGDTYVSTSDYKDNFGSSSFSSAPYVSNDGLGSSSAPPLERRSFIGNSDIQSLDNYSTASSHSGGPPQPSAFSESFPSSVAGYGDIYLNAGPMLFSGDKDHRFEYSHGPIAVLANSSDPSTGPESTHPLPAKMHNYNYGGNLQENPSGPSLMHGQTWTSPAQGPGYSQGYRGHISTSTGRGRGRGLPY

CCc1ccccc1C(=O)Nc1n[nH]c2c(C)c(F)c(C3C(C#N)=C(C)N(C)C(C)=C3C#N)cc12 [BAY-3827]
active: residual activity [11] 43% | inhibition [21] 78.3%
inactive: residual activity [1] 97% | residual activity [2] 100% | residual activity [3] 98% | residual activity [4] 100% | residual activity [5] 100% | residual activity [6] 100% | residual activity [7] 100% | residual activity [8] 68% | residual activity [9] 90% | residual activity [10] 100% | residual activity [12] 80% | residual activity [13] 96% | residual activity [14] 65% | residual activity [15] 92% | residual activity [16] 91% | residual activity [17] 66% | inhibition [18] 9.48% | inhibition [19] 6.23% | inhibition [20] 6.85%

CC1=C(C#N)C(c2ccc3c(c2)c(NC(=O)c2ccccc2C)nn3C)C(C#N)=C(C)N1 [BAY-974]
active: inhibition [21] 51.2%
inactive: residual activity [1] 82% | residual activity [2] 87% | residual activity [3] 85% | residual activity [4] 89% | residual activity [5] 93% | residual activity [6] 93% | residual activity [7] 97% | residual activity [8] 84% | residual activity [9] 100% | residual activity [10] 71% | residual activity [11] 81% | residual activity [12] 89% | residual activity [13] 79% | residual activity [14] 97% | residual activity [15] 78% | residual activity [16] 95% | residual activity [17] 88% | inhibition [18] 4.12% | inhibition [19] 0.94% | inhibition [20] 1.96%
